Measured values taken from the supplement of paper PMC10307832.

Assays:
Experiment in all cases: relative viability (nuclei count vs DMSO), 5 days (fraction); higher = more cells survive
VX-11e + Vorinostat = compound: CC1=CN=C(N=C1C2=CNC(=C2)C(=O)N[C@H](CO)C3=CC(=CC=C3)Cl)NC4=C(C=C(C=C4)F)Cl [VX-11e] + O=C(CCCCCCC(=O)Nc1ccccc1)NO [Vorinostat] (partner 1 µM)
Procedure, shortened: (§1)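 Five library-drug doses in √10 steps were combined with a fixed anchor-drug dose, or a single drug was given alone, by pin tool to lung cancer cell lines in 1536-well plates the day after seeding. Nuclei were stained and counted after 5 days. Relative viability is the nuclei count in treated wells over that in vehicle wells, taken as the median of duplicate plates.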

VX-11e + Dasatinib = compound: CC1=CN=C(N=C1C2=CNC(=C2)C(=O)N[C@H](CO)C3=CC(=CC=C3)Cl)NC4=C(C=C(C=C4)F)Cl [VX-11e] + Cc1nc(Nc2ncc(C(=O)Nc3c(C)cccc3Cl)s2)cc(N2CCN(CCO)CC2)n1 [Dasatinib] (partner 0.075 µM)
Procedure, shortened: as §1

VX-11e + Pictilisib = compound: CC1=CN=C(N=C1C2=CNC(=C2)C(=O)N[C@H](CO)C3=CC(=CC=C3)Cl)NC4=C(C=C(C=C4)F)Cl [VX-11e] + CS(=O)(=O)N1CCN(Cc2cc3nc(-c4cccc5[nH]ncc45)nc(N4CCOCC4)c3s2)CC1 [Pictilisib] (partner 1 µM)
Procedure, shortened: as §1

VX-11e + Crizotinib = compound: CC1=CN=C(N=C1C2=CNC(=C2)C(=O)N[C@H](CO)C3=CC(=CC=C3)Cl)NC4=C(C=C(C=C4)F)Cl [VX-11e] + C[C@@H](Oc1cc(-c2cnn(C3CCNCC3)c2)cnc1N)c1c(Cl)ccc(F)c1Cl [Crizotinib] (partner 1 µM)
Procedure, shortened: as §1

| Cell Line | relative viability (VX-11e + Vorinostat; first compound 0.04 µM) | relative viability (VX-11e + Vorinostat; first compound 0.1265 µM) | relative viability (VX-11e + Vorinostat; first compound 1.265 µM) | relative viability (VX-11e + Vorinostat; first compound 4 µM) | relative viability (VX-11e + Dasatinib; first compound 0.04 µM) | relative viability (VX-11e + Dasatinib; first compound 0.1265 µM) | relative viability (VX-11e + Dasatinib; first compound 1.265 µM) | relative viability (VX-11e + Dasatinib; first compound 4 µM) | relative viability (VX-11e + Pictilisib; first compound 0.04 µM) | relative viability (VX-11e + Pictilisib; first compound 0.1265 µM) | relative viability (VX-11e + Pictilisib; first compound 0.4 µM) | relative viability (VX-11e + Pictilisib; first compound 1.265 µM) | relative viability (VX-11e + Pictilisib; first compound 4 µM) | relative viability (VX-11e + Crizotinib; first compound 0.04 µM) | relative viability (VX-11e + Crizotinib; first compound 0.1265 µM) | relative viability (VX-11e + Crizotinib; first compound 1.265 µM) | relative viability (VX-11e + Crizotinib; first compound 4 µM) | relative viability (VX-11e + Vorinostat; first compound 0.4 µM) | relative viability (VX-11e + Dasatinib; first compound 0.4 µM) | relative viability (VX-11e + Crizotinib; first compound 0.4 µM) |
| --- | --- | --- | --- | --- | --- | --- | --- | --- | --- | --- | --- | --- | --- | --- | --- | --- | --- | --- | --- | --- |
| HCC-366 | 0.314 | 0.332 | 0.105 | 0.199 | 0.736 | 0.612 | 0.434 | 0.241 | 0.159 | 0.101 | 0.15 | 0.12 | 0.081 | 0.605 | 0.476 | 0.561 | 0.184 |  |  |  |
| HCC-827 | 0.924 | 0.846 | 0.918 | 0.761 | 0.297 | 0.292 | 0.406 | 0.246 | 1.03 | 0.883 | 1.06 | 1.19 | 0.813 | 1.01 | 0.953 | 0.958 | 0.839 | 1.03 | 0.257 | 0.888 |
| HOP-62 | 0.519 | 0.59 | 0.201 | 0.158 | 0.685 | 0.652 | 0.457 | 0.242 | 0.42 | 0.51 | 0.152 | 0.125 | 0.116 | 0.887 | 0.863 | 0.76 | 0.428 | 0.345 | 0.663 | 0.978 |
| IA-LM | 1.07 | 0.814 | 0.668 | 0.302 |  |  |  |  | 0.327 | 0.263 | 0.199 | 0.0879 | 0.0695 | 0.931 | 0.961 | 0.271 | 0.116 | 0.941 |  | 0.697 |
| LC-2-ad | 0.84 | 0.695 | 0.456 | 0.376 | 0.48 | 0.402 | 0.289 | 0.324 | 0.398 | 0.432 | 0.349 | 0.247 | 0.163 | 0.459 | 0.424 | 0.395 | 0.401 | 0.733 | 0.326 | 0.529 |
| LCLC-97TM1 | 0.765 | 0.718 |  | 0.149 | 1 | 0.728 | 0.547 | 0.301 | 0.137 | 0.138 |  | 0.143 | 0.0889 | 0.396 | 0.383 | 0.324 | 0.182 | 0.758 | 0.793 |  |
| LCLC-103H | 0.807 | 0.68 | 0.46 | 0.66 | 0.45 | 0.435 | 0.446 | 0.444 | 0.516 | 0.509 | 0.582 | 0.442 | 0.439 | 1.01 | 1.09 | 0.882 | 0.852 | 0.673 | 0.545 | 0.968 |
| LK-2 | 0.223 | 0.323 | 0.297 | 0.227 | 0.25 | 0.344 | 0.155 | 0.257 |  | 0.45 | 0.562 |  | 0.337 |  | 0.275 |  | 0.243 | 0.268 | 0.244 | 0.394 |
| LOU-NH91 | 0.889 | 0.79 | 0.626 | 0.781 | 0.534 | 0.514 | 0.489 | 0.471 | 0.474 | 0.54 |  | 0.501 | 0.504 | 0.706 | 0.71 | 0.773 | 0.639 |  | 0.372 |  |
